Assay results taken from the supplement of paper PMC10307832.

Assays:
Experiment in all cases: relative viability (nuclei count vs DMSO), 5 days (fraction); higher = more cells survive
Ibrutinib + Trametinib = compound: C=CC(=O)N1CCC[C@@H](n2nc(-c3ccc(Oc4ccccc4)cc3)c3c(N)ncnc32)C1 [Ibrutinib] + CC(=O)Nc1cccc(-n2c(=O)n(C3CC3)c(=O)c3c(Nc4ccc(I)cc4F)n(C)c(=O)c(C)c32)c1 [Trametinib] (partner 0.02 µM)
Procedure, shortened: (§1)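 Lung cancer cell lines in 1536-well plates got either a single drug or a fixed anchor-drug dose together with five library-drug doses (not always all listed) in √10 steps, by pin tool, on the day after seeding. Nuclei were counted after 5 days, and relative viability is the treated-to-vehicle ratio of nuclei counts. Values are medians of duplicate plates.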

Ibrutinib + Crizotinib = compound: C=CC(=O)N1CCC[C@@H](n2nc(-c3ccc(Oc4ccccc4)cc3)c3c(N)ncnc32)C1 [Ibrutinib] + C[C@@H](Oc1cc(-c2cnn(C3CCNCC3)c2)cnc1N)c1c(Cl)ccc(F)c1Cl [Crizotinib] (partner 1 µM)
Procedure, shortened: as §1

BMX-IN-1 + Alpelisib = compound: C=CC(=O)Nc1cc(-n2c(=O)ccc3cnc4ccc(-c5ccc(NS(C)(=O)=O)cc5)cc4c32)ccc1C [BMX-IN-1] + Cc1nc(NC(=O)N2CCC[C@H]2C(N)=O)sc1-c1ccnc(C(C)(C)C(F)(F)F)c1 [Alpelisib] (partner 2 µM)
Procedure, shortened: as §1

PAC-1 + Olaparib = compound: C=CCc1cccc(/C=N/NC(=O)CN2CCN(Cc3ccccc3)CC2)c1O [PAC-1] + O=C(c1cc(Cc2n[nH]c(=O)c3ccccc23)ccc1F)N1CCN(C(=O)C2CC2)CC1 [Olaparib] (partner 8 µM)
Procedure, shortened: as §1

With SK-MES-1 the relative viability (Ibrutinib + Trametinib; first compound 0.005 µM) was 0.591, the relative viability (Ibrutinib + Trametinib; first compound 0.01581 µM) was 0.467 and the relative viability (Ibrutinib + Trametinib; first compound 0.05 µM) was 0.36. For the same cell line, the relative viability (Ibrutinib + Trametinib; first compound 0.1581 µM) was 0.611, the relative viability (Ibrutinib + Trametinib; first compound 0.5 µM) was 0.297 and the relative viability (Ibrutinib + Crizotinib; first compound 0.005 µM) was 0.984. For the same cell line, the relative viability (Ibrutinib + Crizotinib; first compound 0.01581 µM) was 0.907, the relative viability (Ibrutinib + Crizotinib; first compound 0.05 µM) was 1.02 and the relative viability (Ibrutinib + Crizotinib; first compound 0.5 µM) was 0.555. The relative viability (BMX-IN-1 + Alpelisib; first compound 0.02 µM) was 1.09, the relative viability (BMX-IN-1 + Alpelisib; first compound 0.2 µM) was 0.947 and the relative viability (BMX-IN-1 + Alpelisib; first compound 0.6325 µM) was 0.911. It also gave a relative viability (BMX-IN-1 + Alpelisib; first compound 2 µM) of 0.88, a relative viability (PAC-1 + Olaparib; first compound 0.02 µM) of 0.717 and a relative viability (PAC-1 + Olaparib; first compound 0.06325 µM) of 0.711. For the same cell line, the relative viability (PAC-1 + Olaparib; first compound 0.2 µM) was 0.635 and the relative viability (PAC-1 + Olaparib; first compound 2 µM) was 0.437.
